Data on nine compounds can be found in US20230024108A1, “ADENOSINE A2A RECEPTOR ANTAGONISTS” (Teon Therapeutics, Inc., priority 2019, published 2023).

One test deals with T1, A1AdoR (Homo sapiens, UniProt P30542).
T1 construct: purchased PerkinElmer ES-010-M400UA
T1 sequence (P30542 1-326): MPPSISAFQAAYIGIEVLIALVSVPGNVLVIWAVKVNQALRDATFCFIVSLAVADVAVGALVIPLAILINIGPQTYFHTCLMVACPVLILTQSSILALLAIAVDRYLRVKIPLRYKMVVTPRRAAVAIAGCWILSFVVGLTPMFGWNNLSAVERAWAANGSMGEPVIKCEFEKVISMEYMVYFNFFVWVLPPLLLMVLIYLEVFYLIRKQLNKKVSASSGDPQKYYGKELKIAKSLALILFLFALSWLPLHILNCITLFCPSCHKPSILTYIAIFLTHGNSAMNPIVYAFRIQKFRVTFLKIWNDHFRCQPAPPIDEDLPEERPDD
Description: Adenosine receptor binding assay, A1 ([3H]-DPCPX). The following applies: ratio A1 vs A2A binding. The procedure: (§1) Membranes prepared from CHO-K1 cells stably expressing Human AiAdoR (ES-010-M400UA), HEK-293 cells stably expressing human A2A AdoR (RBHA2AM400UA), HEK-293 cells stably expressing human A2B AdoR (ES-013-M400UA) and CHO-K1 cells stably expressing Human A3 AdoR (ES-012-M400UA) were purchased from PerkinElmer (Waltham, Mass., USA) and stored at −80° C. until use. Binding assays are performed using the radioligands. The final concentrations are as follows: [3H]-DPCPX (PerkinElmer, NET974001MC) at 1 nM for A1AdoR; [^3H]-CGS-21680 (PerkinElmer, NET1021250UC) at 6 nM for A2AAdoR, [3H]-DPCPX (PerkinElmer, NET974001MC) at 8 nM for A2BAdoR; [^3H]-HEMADO (ARC, Cat: ART1456) at 1 nM for A3AdoR. Testing compounds are diluted with DMSO to make 8-point 4-fold serial dilution. Nonspecific binding (Low control: LC) and total binding (High control: HC) are determined in the presence or absence of saturated cold ligand. Specific binding is calculated by subtracting nonspecific binding from total binding. All assays are performed in a final volume of 200 μl containing 1 μl of the test compound in DMSO, 100 μl of membrane preparation, and 99 μl of the radioligand in assay buffer (A1AdoR: 25 mM HEPES pH 7.4, 5 mM MgCl2, 1 mM CaCl2), 100 mM NaCl; A2AAdoR: 50 mM Tris HCl pH 7.4, 10 mM MgCl2, 1 mM EDTA; A2BAdoR: 50 mM HEPES pH 7.0, 5 mM MgCl2, 1 mM EDTA; A3AdoR: 25 HEPES pH 7.4, 10 mM MgCl2, 1 mM CaCl2), 0.5% BSA). The incubation is performed at room temperature with shaking at 300 rpm for 1 hour for A1AdoR, A2BAdoR and A3AdoR and 2 hours for A2AAdoR. After the incubation, the assay mixture is filtered through 96 GF/C filter plates (Perkin Elmer #6005174) using Perkin Elmer Filtermate Harvester, and then washed four times with ice-cold washing buffer (A1AdoR: 25 mM HEPES pH 7.4, 5 mM MgCl2, 1 mM CaCl2), 100 mM NaCl; A2AAdoR: 50 mM Tris HCl pH 7.4, 154 mM NaCl; A2BAdoR: 50 mM HEPES pH 6.5, 5 mM MgCl2, 1 mM EDTA, 0.2% BSA; A3AdoR: 50 mM Tris HCl pH 7.4). The filters are dried for 1 hour at 50° C. and [^3H] trapped on filter counted for radioactivity in Perkin Elmer Microscint 20 cocktail (#6013329) using Perkin Elmer MicroBeta2 Reader. The results are expressed as a percent inhibition of the control radioligand specific binding calculated using the following equation: % Inhibition=(1−(Assay well-Average_LC)/(Average_HC−Average_LC))×100%. Data are analyzed and IC50 is calculated using GraphPad Prism 5 and the model “log(inhibitor) vs. response—Variable slope”. The binding affinity of the compounds is determined by using the Cheng and Prusoff equation Ki=IC50/(1+[radioligand]/Kd).

The next test addresses T2, human A2A AdoR (Homo sapiens, UniProt P29274).
T2 construct: purchased PerkinElmer RBHA2AM400UA
Description: Adenosine receptor binding assay, A2A ([3H]-CGS-21680). The settings on record: membranes of HEK-293 cells expressing human A2A AdoR; read-out: hA2A IC50. The procedure:
as §1

The structures appear in SMILES notation. Where a name gives a salt, the structure may show the parent alone.

T2 sequence (P29274 whole entry): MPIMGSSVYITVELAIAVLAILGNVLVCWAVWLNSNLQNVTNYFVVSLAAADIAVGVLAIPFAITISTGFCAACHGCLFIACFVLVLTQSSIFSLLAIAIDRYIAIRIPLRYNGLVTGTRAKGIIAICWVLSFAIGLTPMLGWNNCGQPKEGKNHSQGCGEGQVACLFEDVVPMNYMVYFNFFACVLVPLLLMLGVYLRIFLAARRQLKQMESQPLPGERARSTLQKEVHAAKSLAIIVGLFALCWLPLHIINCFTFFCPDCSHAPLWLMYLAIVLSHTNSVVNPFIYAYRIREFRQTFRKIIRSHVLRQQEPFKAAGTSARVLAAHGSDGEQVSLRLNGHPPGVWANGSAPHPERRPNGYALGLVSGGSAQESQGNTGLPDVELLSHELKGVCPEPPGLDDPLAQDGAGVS

On to `Cc1cc(N2CCN(CCn3c(C(N)=O)c(Cl)c4c3nc(N)n3nc(-c5ccccn5)nc43)CC2)c(F)cn1` [5-amino-9-chloro-7-(2-(4-(5-fluoro-2-methylpyridin-4-yl)piperazin-1-yl)ethyl)-2-(pyridin-2-yl)-7H-pyrrolo[3,2-e][1,2,4]triazolo[1,5-c]pyrimidine-8-carboxamide], for which the “A1/A2A Selectivity” value at A1AdoR is reported as “c (greater than 0 but less than or equal to 100)”. In addition, on human A2A AdoR, the IC50 (commonly the concentration that inhibits the measured activity by half) is not above 20 nM.
As for `Cc1cc(N2CCN(CCn3c(C(=O)O)c(Cl)c4c3nc(N)n3nc(-c5ccccn5)nc43)CC2)c(F)cn1` [5-amino-9-chloro-7-(2-(4-(5-fluoro-2-methylpyridin-4-yl)piperazin-1-yl)ethyl)-2-(pyridin-2-yl)-7H-pyrrolo[3,2-e][1,2,4]triazolo[1,5-c]pyrimidine-8-carboxylic acid], the “A1/A2A Selectivity” value on A1AdoR is “a (greater than 1000)”. Also, at human A2A AdoR, the IC50 is not above 20 nM.
`Cc1noc2cc(F)c(N3CCCN(CCn4c(C(=O)O)c(Cl)c5c4nc(N)n4nc(-c6ccccn6)nc54)CC3)cc12` [5-amino-9-chloro-7-(2-(4-(6-fluoro-3-methylbenzo[d]isoxazol-5-yl)-1,4-diazepan-1-yl)ethyl)-2-(pyridin-2-yl)-7H-pyrrolo[3,2-e][1,2,4]triazolo[1,5-c]pyrimidine-8-carboxylic acid]: the “A1/A2A Selectivity” value at A1AdoR is listed as “c (greater than 0 but less than or equal to 100)”. For the same compound, the IC50 at human A2A AdoR was more than 100 nM.
For `Cc1noc2cc(F)c(N3CCN(CCn4c(OC=O)c(Cl)c5c4nc(N)n4nc(-c6ccccn6)nc54)CC3)cc12` [5-amino-9-chloro-7-(2-(4-(6-fluoro-3-methylbenzo[d]isoxazol-5-yl)piperazin-1-yl)ethyl)-2-(pyridin-2-yl)-7H-pyrrolo[3,2-e][1,2,4]triazolo[1,5-c]pyrimidin-8-yl formate] the same measures were “a (greater than 1000)” and not above 20 nM.
For the compound `Cc1c(C(N)=O)n(CCN2CCN(c3ccncc3)CC2)c2nc(N)n3nc(-c4ccccn4)nc3c12` [5-amino-9-methyl-2-(pyridin-2-yl)-7-(2-(4-(pyridin-4-yl)piperazin-1-yl)ethyl)-7H-pyrrolo[3,2-e][1,2,4]triazolo[1,5-c]pyrimidine-8-carboxamide], at A1AdoR, the “A1/A2A Selectivity” value is “c (greater than 0 but less than or equal to 100)”. Moreover, on human A2A AdoR, the half-inhibitory concentration (IC50) is not above 20 nM.
Taken in the same sequence, the figures for `Cc1c(C(N)=O)n(CCN2CCN(c3ncccn3)CC2)c2nc(N)n3nc(-c4ccccn4)nc3c12` [5-amino-9-methyl-2-(pyridin-2-yl)-7-(2-(4-(pyrimidin-2-yl)piperazin-1-yl)ethyl)-7H-pyrrolo[3,2-e][1,2,4]triazolo[1,5-c]pyrimidine-8-carboxamide] were “b (greater than 100 but less than or equal to 1000)” and not above 20 nM.
For `Cc1c(C(=O)O)n(CCN2CCN(c3ncccn3)CC2)c2nc(N)n3nc(-c4ccccn4)nc3c12` [5-amino-9-methyl-2-(pyridin-2-yl)-7-(2-(4-(pyrimidin-2-yl)piperazin-1-yl)ethyl)-7H-pyrrolo[3,2-e][1,2,4]triazolo[1,5-c]pyrimidine-8-carboxylic acid] the same measures were “b (greater than 100 but less than or equal to 1000)” and not above 20 nM.
For `Cc1cn(CCN2CCCN(c3cc(-c4ncco4)ccc3F)CC2)c2nc(N)n3nc(-c4ccccn4)nc3c12` [7-(2-(4-(2-fluoro-5-(oxazol-2-yl)phenyl)-1,4-diazepan-1-yl)ethyl)-9-methyl-2-(pyridin-2-yl)-7H-pyrrolo[3,2-e][1,2,4]triazolo[1,5-c]pyrimidin-5-amine] the same measures were “c (greater than 0 but less than or equal to 100)” and not above 20 nM.
For `Nc1nc2c(ncn2CCN2CCN(c3cc(-c4ncco4)ccc3F)CC2)c2nc(C#CC3CC3)nn12` [8-(cyclopropylethynyl)-3-(2-(4-(2-fluoro-5-(oxazol-2-yl)phenyl)piperazin-1-yl)ethyl)-3H-[1,2,4]triazolo[5,1-i]purin-5-amine], the “A1/A2A Selectivity” value at A1AdoR is “b (greater than 100 but less than or equal to 1000)”. Further, the IC50 on human A2A AdoR was not above 20 nM.
